Test results from US20120322699A1, “Method of Preventing Scale Formation During Enhanced Oil Recovery” (Chevron U.S.A. Inc., priority 2011, published 2012).

Assays:
[1] = Bottle test of scale prevention capacity of metal complexing agents; type: physicochemical
Method: Scale prevention capacity of the metal complexing agents were then tested using the following bottle test procedure: • 1. Synthetic field brine was prepared with NaCl and NaHCO3 (constituents of the brine) but CaCl2 and MgCl2 content was temporarily withheld to avoid premature scaling. • 2. Metal complexing agent was added to the brine above in a stoichiometrically required amount and at higher concentrations and the solution was allowed to equilibrate after thorough mixing. • 3. CaCl2 and MgCl2 were added and the brine solutions were equilibrated. • 4. In a preliminary test, the impact of pH alone was evaluated. […] If no scale was observed, step 4 was repeated with addition of Na2CO3.

[2] = Initial screening of complexing agents and scale inhibitors with synthetic brine; type: physicochemical; details: for Maximum pH: complexing agents, synthetic brine 1,000 ppm Ca2+/Mg2+, 450 ppm HCO3-
Method: Eight different metal complexing agents and five commercial scale inhibitors were tested according to known laboratory methods with a synthetic brine containing 1,000 ppm of divalent cation (Ca^2+/Mg^2+) and 450 ppm of HCO3^−. Among the complexing agents tested, six were organic ligands with carboxylate moieties and two were inorganic phosphates. The five scale inhibitors tested were commercial products supplied by Nalco Chemicals based on phosphonate, acrylate and sulfonate.

[3] = Final bottle tests of formulations at lower agent concentrations with scale inhibitors; type: physicochemical
Method: Based on the above results, two commercial scale inhibitors were combined in synthetic brine with the metal complexing agents. The pH of the solutions was raised by addition of 1.0M NaOH to simulate the basic environment during an alkaline flood. The following procedure was used to prepare the aqueous solutions: • 1. Synthetic field brine was prepared by temporarily excluding the HCO3^−. • 2. Scale inhibitor was added and the solution was allowed to equilibrate after thorough mixing. • 3. Metal complexing agent was added to the brine above in concentrations near half of the stoichiometrically required amount and the solution was allowed to equilibrate after thorough mixing. • 4. NaHCO3 was added and the brine solutions were equilibrated. • 5.

[4] = Initial bottle tests with BASF complexing agents without changing the pH; type: physicochemical; details: equimolar concentration (7,350 ppm) with the calcium ions, hard brine
Description: The initial bottles tests were designed at the reported calcium binding capacity of the agents without changing the pH.

[5] = at 25° C.; cited from earlier work
[6] = agent 1.5 %, alkali NaOH, pH 8.80
[7] = agent 0.8 %, alkali Na2B2O4, pH 10.10
[8] = agent 1.5 %, alkali Na2B2O4, pH 10.10
[9] = agent 1.5 %, alkali Na2CO3, pH 10.10
[10] = agent 1.5 %, alkali NaOH, pH 10.20
[11] = agent 1.1 %, alkali Na2B2O4, pH 9.97
[12] = agent 1.1 %, alkali Na2B2O4, pH 10.10
[13] = agent 1.1 %, alkali Na2B2O4, pH 10.15
[14] = agent 1.1 %, alkali Na2CO3, pH 10.60
[15] = agent 1.1 %, alkali Na2CO3, pH 10.69
[16] = agent 1.1 %, alkali Na2CO3, pH 10.77

O=C([O-])CN(CC(=O)[O-])CC(=O)[O-].[Na+].[Na+].[Na+] [NTA-Na3, sodium nitrilotriacetate]
Status (next day) ([1]; agent 0.8 %, no alkali added): scale
Status (same day) ([1]; agent 0.8 %, no alkali added): scale
Status (next day) ([1]; agent 1.1 %, no alkali added): scale
Status (same day) ([1]; agent 1.1 %, no alkali added): scale
Status (next day) ([1]; agent 1.5 %, no alkali added): scale
Status (same day) ([1]; agent 1.5 %, no alkali added): scale

O=P([O-])([O-])OP(=O)([O-])[O-].[K+].[K+].[K+].[K+] [Tetrapotassium pyrophosphate]
Status (next day) [1, 6]: scale
Status (same day) [1, 6]: scale

O=C([O-])CC(O)(CC(=O)[O-])C(=O)[O-].[Na+].[Na+].[Na+] [Sodium citrate, sodium citrate]
overall assessment from bottle test results [1]: not a successful selection
Status (next day) [1, 7]: scale
Status (same day) [1, 7]: clear
Status (next day) [1, 8]: scale
Status (same day) [1, 8]: clear
Status (next day) [1, 9]: scale
Status (same day) [1, 9]: scale

O.O=C([O-])/C=C\C(=O)[O-].[Na+].[Na+] [Sodium maleate, sodium maleate monohydrate]
overall assessment from bottle test results [1]: promising results
Status (next day) [1, 10]: clear
Status (same day) [1, 10]: clear
Maximum pH [2]: 10.2

CC(C(=O)O)N(CC(=O)O)CC(=O)O (stereo not shown) [MGDA, methylglycinediacetic acid]
complexing agent concentration when used with scale inhibitor ([3]; in combination with 500 ppm VX9400): 5,500 ppm
pH value up to which scaling prevented [4]: ≤ 9.9

CC(=O)ON(CCN(OC(C)=O)OC(C)=O)OC(C)=O.[Na] [EDTA-Na4, sodium ethylenediamine tetraacetate]
Status (next day) [1, 11]: clear
Status (same day) [1, 11]: clear
Status (next day) [1, 12]: clear
Status (same day) [1, 12]: clear
Status (next day) [1, 13]: clear
Status (same day) [1, 13]: clear
Status (next day) [1, 14]: clear
Status (same day) [1, 14]: clear
Status (next day) [1, 15]: clear
Status (same day) [1, 15]: clear
Status (next day) [1, 16]: clear
Status (same day) [1, 16]: clear
pH value up to which effective ([2]; 11,000 ppm in hard field brine (equimolar Ca:EDTA)): ≤ 10.7
Maximum pH [2]: 10.7

O=C(O)CN(CCN(CC(=O)O)CC(=O)O)CC(=O)O [EDTA, ethylenediaminetetraacetic acid]
complexing agent concentration when used with scale inhibitor ([3]; in combination with 200 ppm VX9400): 7,500 ppm

O=P(O)(O)OP(=O)(O)OP(=O)(O)O [Sodium tripolyphosphate]
Status (next day) ([1]; agent 1.15 %, no alkali added): scale
Status (same day) ([1]; agent 1.15 %, no alkali added): scale
Status (next day) ([1]; agent 1.5 %, no alkali added): scale
Status (same day) ([1]; agent 1.5 %, no alkali added): scale
Status (next day) ([1]; agent […], no alkali added): scale
Status (same day) ([1]; agent […], no alkali added): scale
water solubility [5]: 14.5 g/100 mL
